Measurements published in PubChem BioAssay (NCI).
Values joined by “and” are separate entries in the source; they are usually repeats but may differ in a detail not shown here. Identical values can stand only once.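 Each compound was tested at five concentrations against cells in 96-well plates for 48 hours. GI50 = concentration required for 50% inhibition of growth. TGI denotes the concentration required for complete inhibition of growth.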

Columns and labels:
Test in all cases: NCI tumour cell line growth inhibition, 48 h
A549 NSCLC = system: A549 NSCLC
HOP-62 NSCLC = system: HOP-62 NSCLC
KM12 colon = system: KM12 colon
MALME-3M melanoma = system: MALME-3M melanoma
OVCAR-3 ovarian = system: OVCAR-3 ovarian
OVCAR-5 ovarian = system: OVCAR-5 ovarian
SK-MEL-28 melanoma = system: SK-MEL-28 melanoma
SW-620 colon = system: SW-620 colon

Structure (SMILES)	GI50 (A549 NSCLC)	TGI (A549 NSCLC)	GI50 (HOP-62 NSCLC)	TGI (HOP-62 NSCLC)	GI50 (KM12 colon)	TGI (KM12 colon)	GI50 (MALME-3M melanoma)	TGI (MALME-3M melanoma)	GI50 (OVCAR-3 ovarian)	TGI (OVCAR-3 ovarian)	GI50 (OVCAR-5 ovarian)	TGI (OVCAR-5 ovarian)	GI50 (SK-MEL-28 melanoma)	TGI (SK-MEL-28 melanoma)	GI50 (SW-620 colon)	TGI (SW-620 colon)
Fc1ccc(-c2ncn(C3CCNCC3)c2-c2ccnc(Oc3ccccc3)n2)cc1	20.1 µM	> 25 µM	> 25 µM	> 25 µM	> 25 µM	> 25 µM	18.4 µM	> 25 µM	> 25 µM	> 25 µM	22.3 µM	> 25 µM	16.9 µM	> 25 µM	> 25 µM	> 25 µM
C=CCCC(O)c1ccc(C(O)CCCCCCCCCCCC)o1 (configuration not stated)	17.7 µM	39.2 µM	19.1 µM	34.8 µM	21.7 µM	42.8 µM			18.7 µM	35.7 µM	21.5 µM	41.4 µM	27.1 µM	65.5 µM	17.9 µM	37.9 µM
CC(C)c1ccc2c(N=Nc3ccc(S(N)(=O)=O)cc3)c(O)[nH]c2c1	> 14.8 µM	> 25 µM	5.54 µM	12.6 µM	1.24 µM	> 25 µM	12.4 µM	> 25 µM	6.21 µM	18.6 µM	> 25 µM	> 25 µM	> 25 µM	> 25 µM	> 25 µM	> 25 µM
CC1(C)CC[C@]2(C(=O)n3ccnc3)CC[C@]3(C)[C@H](C(=O)C=C4[C@@]5(C)C=C(C#N)C(=O)C(C)(C)[C@@H]5CC[C@]43C)[C@@H]2C1	< 0.0214 µM		0.0105 µM	0.0402 µM	< 0.0104 µM	< 0.0199 µM	< 0.0111 µM	< 0.0188 µM	< 0.01 µM	0.0994 µM	0.0103 µM	0.137 µM	< 0.0155 µM	0.0848 µM		
CCOCCc1c(O)nc(SC)[nH]c1=O	> 100 µM	> 100 µM	> 100 µM	> 100 µM	> 100 µM	> 100 µM	> 100 µM	> 100 µM	> 100 µM	> 100 µM	> 100 µM	> 100 µM	> 100 µM	> 100 µM	> 100 µM	> 100 µM
O=C(CSc1nc2ccc([N+](=O)[O-])cc2[nH]1)Nc1cccc(Cl)c1	2.72 µM	15.9 µM	2.79 µM	13 µM	3.1 µM	13.8 µM	1.87 µM	8.17 µM	2.38 µM	14 µM	2.7 µM	13.4 µM	2.68 µM	13.1 µM	3.38 µM	19.8 µM
O=C(/C=C/c1ccccn1)c1ccccc1O	5.37 µM	20.4 µM	2.4 µM	6.15 µM	1.55 µM	3.04 µM			1.71 µM	3.5 µM	2.43 µM	6.8 µM	2.09 µM	4.22 µM	1.92 µM	4.02 µM
C/C(=N\Nc1ccc2ccccc2n1)c1ccccc1O		> 100 µM		> 47.9 µM		> 100 µM		> 100 µM		> 20 µM		> 100 µM		> 100 µM		> 100 µM
CN(CCCCCl)P(=O)(OCc1ccc([N+](=O)[O-])o1)C(F)(F)c1ccc(CC(=O)N[C@@H](CC(=O)O)C(=O)N[C@@H](Cc2ccc(C(F)(F)P(=O)(OCc3ccc([N+](=O)[O-])o3)N(C)CCCCCl)cc2)C(N)=O)cc1 (some centres not stated)	> 100 µM	> 100 µM	> 100 µM	> 100 µM	43 µM	> 100 µM	> 100 µM	> 100 µM	37.6 µM	> 100 µM	> 100 µM	> 100 µM	42.4 µM	> 100 µM	81.9 µM	> 100 µM
O=C1OC(c2ccccc2)C2CC3CC4(CCC3CN12)OCCO4 (configuration not stated)		> 100 µM		> 100 µM		> 100 µM				> 100 µM		> 100 µM		> 100 µM		> 100 µM
COc1ccc(-c2cn(-c3ccc(Cl)cc3)c(=S)[nH]2)cc1OC	66.4 µM	> 100 µM	21.5 µM	> 100 µM	23.8 µM	> 100 µM	68.4 µM	> 100 µM	47.2 µM	> 100 µM	4.58 µM	> 100 µM	22.3 µM	> 100 µM	> 100 µM	> 100 µM
C[As](C)Sc1ccnc(S[As](C)C)n1	8.51 µM	> 41.7 µM	19 µM	> 46.3 µM	9.52 µM	> 51.9 µM	1.66 µM	11.3 µM	3.91 µM	22 µM	19.6 µM	> 48.4 µM	2.67 µM	19.7 µM	1.4 µM	19.5 µM
COc1ccc(-c2cc(-c3ccc(O)cc3)nc3nc(=S)[nH]c(N)c23)cc1	17.4 µM	54.6 µM	20.7 µM	47.5 µM	16.9 µM	41.3 µM	17.6 µM	38.7 µM	16.4 µM	45 µM	32 µM	74.3 µM	66.8 µM	> 100 µM	16 µM	33.3 µM
O=C(c1ccccc1)c1ccc(Cl)c([N+](=O)[O-])c1	16.3 µM	40.5 µM	13.8 µM	28.8 µM	5.97 µM	18.9 µM			3.83 µM	12.7 µM	4.38 µM	18.7 µM	5.59 µM	19 µM	5.27 µM	21.9 µM
O=S(=O)(O)c1ccc(Cl)cc1.[Cd]	> 100 µM	> 100 µM	> 100 µM	> 100 µM	73.4 µM	> 100 µM			18.5 µM	44.4 µM	> 100 µM	> 100 µM	> 100 µM	> 100 µM	52.3 µM	> 100 µM
O=C1CSC(=S)N1c1ccc(F)cc1F		> 100 µM		> 100 µM		> 100 µM		> 100 µM		> 100 µM				> 100 µM		> 100 µM
CS(=O)(=O)N1CCN(Cc2cc3nc(-c4cccc5[nH]ncc45)nc(N4CCOCC4)c3s2)CC1	0.477 µM and 0.43 µM	3.71 µM and > 5.34 µM	0.655 µM and 0.573 µM	> 100 µM	1.36 µM and 0.754 µM	> 100 µM	0.311 µM and 0.128 µM		0.245 µM and 0.194 µM	3.82 µM and > 5.15 µM	0.357 µM and 0.234 µM	> 100 µM	0.345 µM and 0.133 µM		1.29 µM and 0.484 µM	> 100 µM
COC1OCC(OS(=O)(=O)c2ccc(C)cc2)C(OC(=O)c2ccccc2)C1OC(=O)c1ccccc1 (configuration not stated)	6.14 µM	> 100 µM	3.18 µM	> 100 µM	4.04 µM	> 100 µM	13.7 µM	> 100 µM	2.95 µM	61.7 µM	> 100 µM	> 100 µM	4.62 µM	> 100 µM	3.08 µM	> 100 µM
CC1(C)Cc2cccc(OCC(O)CN3CCN(c4ccc(F)cc4)CC3)c2O1 (configuration not stated)	19.4 µM	> 50 µM	21.9 µM	> 50 µM	15.3 µM	> 50 µM			22.9 µM	> 50 µM	22.1 µM	> 50 µM	19.1 µM	> 50 µM	14.3 µM	> 50 µM
O=C(O)c1cc(N/C=C2\C(=O)c3ccccc3OC2O)ccc1O (configuration not stated)	53.7 µg/mL	> 150 µg/mL	29.8 µg/mL	75.3 µg/mL	25.7 µg/mL	51.6 µg/mL	7.59 µg/mL	40.8 µg/mL	14.6 µg/mL	47.2 µg/mL	29.3 µg/mL	74.9 µg/mL	31.8 µg/mL	113 µg/mL	23.4 µg/mL	54.2 µg/mL
Cn1cc(C2=C(c3c4n(c5ccccc35)CC(CN)C4)C(=O)NC2=O)c2ccccc21 (configuration not stated)	3.74 µM	10.9 µM	4.56 µM	11 µM	3.46 µM	9.22 µM	4.17 µM	8.52 µM	2.82 µM	9.35 µM	7.16 µM	22.1 µM	3.37 µM	7.01 µM	2.98 µM	6.84 µM
CCOc1cc(C=O)c2c(ccc3ccc(OC)c(OC)c32)c1OC		> 100 µM				> 100 µM		> 100 µM		> 100 µM		> 100 µM		> 100 µM		
O=C(CCCCC(=O)N/N=C\c1ccccc1Cl)N/N=C\c1ccccc1Cl	1.77 µM	> 100 µM	3.22 µM	24.6 µM			9.26 µM	> 100 µM	0.598 µM	28.8 µM	> 100 µM	> 100 µM	61.3 µM	> 100 µM		
CN(C)CCCNC(=O)c1cc(NC(=O)CCNC(=O)c2ccc3c(c2)C(=O)c2ccccc2C3=O)cn1C	> 100 µM	> 100 µM	> 100 µM	> 100 µM	40.8 µM	> 100 µM			33.2 µM	> 100 µM	> 100 µM	> 100 µM			> 100 µM	> 100 µM
O=C(O)CN(CC(=O)O)Cc1cc2c(cc1O)Oc1cc(O)c(CN(CC(=O)O)CC(=O)O)cc1C21OC(=O)c2ccccc21		> 100 µM		> 100 µM		> 100 µM				> 100 µM		> 100 µM		> 100 µM		> 100 µM
